Experiments:
[1] = molecular target: T1, 5-hydroxytryptamine receptor 1A (Homo sapiens) (UniProt P08908); assay: Displacement of [3H]-8-OH-DPAT from 5HT1A receptor (unknown origin) at 10 uM
T1 sequence (whole entry): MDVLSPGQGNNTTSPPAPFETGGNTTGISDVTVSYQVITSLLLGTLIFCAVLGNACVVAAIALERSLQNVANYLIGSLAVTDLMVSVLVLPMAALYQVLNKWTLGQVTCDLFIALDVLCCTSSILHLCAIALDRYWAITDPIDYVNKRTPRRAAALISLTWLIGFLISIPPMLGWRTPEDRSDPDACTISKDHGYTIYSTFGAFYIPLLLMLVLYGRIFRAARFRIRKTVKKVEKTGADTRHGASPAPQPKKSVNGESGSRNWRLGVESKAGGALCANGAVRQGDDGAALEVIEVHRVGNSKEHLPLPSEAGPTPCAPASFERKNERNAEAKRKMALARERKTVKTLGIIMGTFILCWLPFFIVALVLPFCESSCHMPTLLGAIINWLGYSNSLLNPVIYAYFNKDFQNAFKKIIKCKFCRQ

[2] = molecular target: 5-hydroxytryptamine receptor 2A (Homo sapiens) (UniProt P28223); assay: Displacement of [3H]ketanserin from 5HT2A receptor (unknown origin) at 10 uM
Sequence of 5-hydroxytryptamine receptor 2A (Homo sapiens) (P28223 whole entry): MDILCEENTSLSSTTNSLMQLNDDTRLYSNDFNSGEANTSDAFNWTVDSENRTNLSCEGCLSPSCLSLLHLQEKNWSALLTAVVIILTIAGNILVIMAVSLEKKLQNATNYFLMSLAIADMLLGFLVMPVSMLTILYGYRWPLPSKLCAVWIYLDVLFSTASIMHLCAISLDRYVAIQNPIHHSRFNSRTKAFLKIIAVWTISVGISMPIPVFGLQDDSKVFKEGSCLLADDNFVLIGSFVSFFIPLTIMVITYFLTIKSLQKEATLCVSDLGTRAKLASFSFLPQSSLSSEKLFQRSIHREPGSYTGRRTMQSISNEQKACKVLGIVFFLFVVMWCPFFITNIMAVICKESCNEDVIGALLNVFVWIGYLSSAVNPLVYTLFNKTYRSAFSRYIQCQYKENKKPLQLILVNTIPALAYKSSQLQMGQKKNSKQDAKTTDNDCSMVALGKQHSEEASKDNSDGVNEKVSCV

[3] = molecular target: T2, 5-hydroxytryptamine receptor 2B (Homo sapiens, UniProt P41595); assay: Displacement of [3H]LSD from 5HT2B receptor (unknown origin) at 10 uM
T2 sequence (P41595 whole entry): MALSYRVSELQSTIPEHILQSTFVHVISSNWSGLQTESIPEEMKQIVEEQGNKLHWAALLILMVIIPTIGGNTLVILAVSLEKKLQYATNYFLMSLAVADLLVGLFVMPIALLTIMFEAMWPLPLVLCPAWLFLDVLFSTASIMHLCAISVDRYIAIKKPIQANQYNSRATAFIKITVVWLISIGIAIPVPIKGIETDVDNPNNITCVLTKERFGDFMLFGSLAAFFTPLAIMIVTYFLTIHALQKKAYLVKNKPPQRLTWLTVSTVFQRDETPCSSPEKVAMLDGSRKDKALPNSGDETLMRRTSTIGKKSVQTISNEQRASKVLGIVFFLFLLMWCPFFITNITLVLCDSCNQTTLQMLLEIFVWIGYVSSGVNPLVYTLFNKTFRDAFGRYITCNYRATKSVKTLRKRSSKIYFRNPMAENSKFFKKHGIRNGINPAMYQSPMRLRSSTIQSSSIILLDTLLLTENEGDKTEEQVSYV

[4] = molecular target: GABA-A receptor; agonist GABA site (Homo sapiens) (UniProt P14867+P47870+P28472+P48169+P34903+P18505+P47869+P31644+Q16445); assay: Binding affinity to GABAA receptor (unknown origin) at 10 uM; type: protein-complex assay
[5] = molecular target: Histamine H1 receptor (Homo sapiens) (UniProt P35367); assay: Binding affinity to histamine H1 receptor (unknown origin) at 10 uM
Sequence of Histamine H1 receptor (Homo sapiens) (P35367 whole entry): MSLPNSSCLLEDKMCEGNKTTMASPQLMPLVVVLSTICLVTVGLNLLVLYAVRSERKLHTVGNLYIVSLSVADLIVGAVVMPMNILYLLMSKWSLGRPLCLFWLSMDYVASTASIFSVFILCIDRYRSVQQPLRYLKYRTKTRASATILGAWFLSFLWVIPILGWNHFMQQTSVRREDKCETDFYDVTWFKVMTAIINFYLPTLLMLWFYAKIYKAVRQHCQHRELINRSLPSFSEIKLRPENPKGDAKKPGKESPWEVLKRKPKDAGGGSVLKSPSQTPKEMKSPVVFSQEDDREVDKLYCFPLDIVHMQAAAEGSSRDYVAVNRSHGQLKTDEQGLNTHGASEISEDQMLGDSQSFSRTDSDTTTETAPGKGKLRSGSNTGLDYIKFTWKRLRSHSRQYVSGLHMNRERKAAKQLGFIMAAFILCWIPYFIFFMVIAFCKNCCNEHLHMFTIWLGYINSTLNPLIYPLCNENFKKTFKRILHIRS

[6] = molecular target: Histamine H2 receptor (Homo sapiens) (UniProt P25021); assay: Binding affinity to histamine H2 receptor (unknown origin) at 10 uM
Sequence of Histamine H2 receptor (Homo sapiens) (P25021 whole entry): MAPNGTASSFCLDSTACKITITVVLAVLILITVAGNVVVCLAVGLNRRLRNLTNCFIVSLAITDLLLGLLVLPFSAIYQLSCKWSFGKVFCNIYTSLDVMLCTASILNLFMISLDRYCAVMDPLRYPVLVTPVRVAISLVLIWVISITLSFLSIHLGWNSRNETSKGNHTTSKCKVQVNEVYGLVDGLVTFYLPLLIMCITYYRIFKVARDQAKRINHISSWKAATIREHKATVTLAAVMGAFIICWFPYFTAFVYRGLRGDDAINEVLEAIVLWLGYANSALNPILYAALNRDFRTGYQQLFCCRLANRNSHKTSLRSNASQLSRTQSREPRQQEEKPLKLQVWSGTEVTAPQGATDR

[7] = molecular target: Histamine H4 receptor (Homo sapiens) (UniProt Q9H3N8); assay: Binding affinity to histamine H4 receptor (unknown origin) at 10 uM
Sequence of Histamine H4 receptor (Homo sapiens) (Q9H3N8 whole entry): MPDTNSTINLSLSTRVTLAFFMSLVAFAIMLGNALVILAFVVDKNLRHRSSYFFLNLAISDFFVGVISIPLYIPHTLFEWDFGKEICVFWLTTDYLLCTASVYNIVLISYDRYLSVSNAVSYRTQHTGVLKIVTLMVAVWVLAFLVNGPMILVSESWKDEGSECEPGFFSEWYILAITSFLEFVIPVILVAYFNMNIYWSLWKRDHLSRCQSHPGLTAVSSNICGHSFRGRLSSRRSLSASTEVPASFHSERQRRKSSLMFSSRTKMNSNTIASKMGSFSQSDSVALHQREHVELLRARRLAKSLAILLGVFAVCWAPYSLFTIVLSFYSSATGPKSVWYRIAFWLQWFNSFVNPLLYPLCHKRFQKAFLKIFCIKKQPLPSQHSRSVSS

[8] = molecular target: Muscarinic acetylcholine receptor M3 (Homo sapiens) (UniProt P20309); assay: Binding affinity to muscarinic M3 receptor (unknown origin) at 10 uM
Sequence of Muscarinic acetylcholine receptor M3 (Homo sapiens) (P20309 whole entry, looked up): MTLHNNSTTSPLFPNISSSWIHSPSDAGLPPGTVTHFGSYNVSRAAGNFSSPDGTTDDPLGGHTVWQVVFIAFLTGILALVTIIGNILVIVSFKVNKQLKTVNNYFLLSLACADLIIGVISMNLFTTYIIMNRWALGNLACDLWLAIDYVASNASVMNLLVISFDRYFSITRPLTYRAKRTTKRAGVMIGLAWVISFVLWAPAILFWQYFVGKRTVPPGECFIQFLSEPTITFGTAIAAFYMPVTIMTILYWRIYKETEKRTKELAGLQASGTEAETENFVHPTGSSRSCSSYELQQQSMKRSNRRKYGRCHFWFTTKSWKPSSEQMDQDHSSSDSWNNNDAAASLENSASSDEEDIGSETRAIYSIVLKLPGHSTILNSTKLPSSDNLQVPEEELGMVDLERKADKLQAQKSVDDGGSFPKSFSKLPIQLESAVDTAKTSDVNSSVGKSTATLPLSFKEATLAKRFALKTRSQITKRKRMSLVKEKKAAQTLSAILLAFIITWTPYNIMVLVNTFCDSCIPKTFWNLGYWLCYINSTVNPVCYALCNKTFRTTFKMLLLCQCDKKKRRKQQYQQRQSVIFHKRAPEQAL

[9] = molecular target: Muscarinic acetylcholine receptor M5 (Homo sapiens) (UniProt P08912); assay: Binding affinity to muscarinic M5 receptor (unknown origin) at 10 uM
Sequence of Muscarinic acetylcholine receptor M5 (Homo sapiens) (P08912 whole entry): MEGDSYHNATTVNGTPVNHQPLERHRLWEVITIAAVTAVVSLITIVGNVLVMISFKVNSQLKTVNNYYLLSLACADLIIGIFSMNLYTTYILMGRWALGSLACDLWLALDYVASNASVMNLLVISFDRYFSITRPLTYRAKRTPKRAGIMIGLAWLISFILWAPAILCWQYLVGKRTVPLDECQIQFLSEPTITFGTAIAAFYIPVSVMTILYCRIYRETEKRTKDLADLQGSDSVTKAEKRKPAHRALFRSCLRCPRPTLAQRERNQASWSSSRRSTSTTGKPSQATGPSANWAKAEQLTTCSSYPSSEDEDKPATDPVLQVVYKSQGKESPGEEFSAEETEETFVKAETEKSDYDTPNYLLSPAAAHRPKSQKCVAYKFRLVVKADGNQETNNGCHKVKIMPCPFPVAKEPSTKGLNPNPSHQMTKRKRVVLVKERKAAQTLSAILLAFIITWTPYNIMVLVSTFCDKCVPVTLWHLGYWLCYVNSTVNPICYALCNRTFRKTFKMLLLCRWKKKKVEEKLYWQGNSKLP

[10] = molecular target: Mu-type opioid receptor (Homo sapiens) (UniProt P35372); assay: Binding affinity to MOR (unknown origin) at 10 uM
Sequence of Mu-type opioid receptor (Homo sapiens) (P35372 whole entry): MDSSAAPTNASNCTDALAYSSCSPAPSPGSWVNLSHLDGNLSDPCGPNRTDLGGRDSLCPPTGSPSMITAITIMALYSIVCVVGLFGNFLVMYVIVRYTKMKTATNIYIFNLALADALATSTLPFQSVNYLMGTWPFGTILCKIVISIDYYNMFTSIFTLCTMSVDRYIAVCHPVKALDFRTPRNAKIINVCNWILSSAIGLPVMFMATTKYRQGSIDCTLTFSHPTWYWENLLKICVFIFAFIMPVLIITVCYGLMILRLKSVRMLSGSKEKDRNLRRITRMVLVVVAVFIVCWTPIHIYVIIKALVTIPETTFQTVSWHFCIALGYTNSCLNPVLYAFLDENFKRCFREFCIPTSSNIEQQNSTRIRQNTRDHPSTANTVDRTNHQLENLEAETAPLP

[11] = molecular target: Sodium-dependent serotonin transporter (Homo sapiens) (UniProt P31645); assay: Binding affinity to SERT (unknown origin) at 10 uM
Sequence of Sodium-dependent serotonin transporter (Homo sapiens) (P31645 whole entry, looked up): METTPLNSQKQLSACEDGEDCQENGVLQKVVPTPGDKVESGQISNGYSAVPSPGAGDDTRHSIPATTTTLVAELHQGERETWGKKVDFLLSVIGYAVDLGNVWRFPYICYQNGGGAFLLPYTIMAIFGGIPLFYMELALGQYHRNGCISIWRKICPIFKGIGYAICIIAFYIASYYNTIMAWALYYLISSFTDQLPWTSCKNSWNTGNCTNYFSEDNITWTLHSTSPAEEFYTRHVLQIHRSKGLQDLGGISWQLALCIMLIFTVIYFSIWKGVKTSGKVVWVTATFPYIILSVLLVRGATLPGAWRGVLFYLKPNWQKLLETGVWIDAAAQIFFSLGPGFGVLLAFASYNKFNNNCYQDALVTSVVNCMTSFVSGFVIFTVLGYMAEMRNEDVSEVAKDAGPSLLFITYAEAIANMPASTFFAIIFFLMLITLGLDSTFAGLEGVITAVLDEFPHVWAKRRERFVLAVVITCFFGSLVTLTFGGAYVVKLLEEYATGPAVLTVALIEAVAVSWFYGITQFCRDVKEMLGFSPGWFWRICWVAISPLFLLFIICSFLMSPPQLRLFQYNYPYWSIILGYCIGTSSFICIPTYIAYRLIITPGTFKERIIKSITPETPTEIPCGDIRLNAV

Sigma 2 receptor = assay: Binding affinity to sigma-2 receptor (unknown origin) at 10 uM; conditions: Homo sapiens
[12] = molecular target: 5-hydroxytryptamine receptor 6 (Homo sapiens, UniProt P50406); assay: Binding affinity to 5HT6 receptor (unknown origin)
Sequence of 5-hydroxytryptamine receptor 6 (P50406 whole entry): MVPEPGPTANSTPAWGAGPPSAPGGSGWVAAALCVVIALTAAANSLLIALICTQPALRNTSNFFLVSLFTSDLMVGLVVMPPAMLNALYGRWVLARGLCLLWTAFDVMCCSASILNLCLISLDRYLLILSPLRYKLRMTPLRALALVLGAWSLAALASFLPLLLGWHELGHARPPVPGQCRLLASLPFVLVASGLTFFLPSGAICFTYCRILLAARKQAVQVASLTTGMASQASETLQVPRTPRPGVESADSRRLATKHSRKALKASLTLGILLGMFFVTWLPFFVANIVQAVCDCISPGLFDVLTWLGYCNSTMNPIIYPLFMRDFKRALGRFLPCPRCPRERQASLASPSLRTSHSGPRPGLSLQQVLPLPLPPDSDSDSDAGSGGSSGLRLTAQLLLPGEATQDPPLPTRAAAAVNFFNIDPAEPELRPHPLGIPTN

[13] = molecular target: Alpha-2A adrenergic receptor (Homo sapiens, UniProt P08913); assay: Binding affinity to alpha2A adrenoceptor (unknown origin)
[14] = molecular target: Alpha-2B adrenergic receptor (Homo sapiens, UniProt P18089); assay: Binding affinity to alpha2B adrenoceptor (unknown origin)
[15] = molecular target: T2, 5-hydroxytryptamine receptor 2B; assay: Displacement of [3H]LSD from 5HT2B receptor (unknown origin)

For `COc1cc2c3c(c1OC)-c1cc4c(cc1CC3N(C)CC2c1ccccc1)OCO4` (stereo unspecified), the inhibition [1] was 5.5%, the inhibition [2] was 33.5% and the inhibition [3] was 92.2%. The inhibition [4] was under 50%, the inhibition [5] was under 50% and the inhibition [6] was under 50%. It also gave an inhibition [7] of under 50%, an inhibition [8] of under 50% and an inhibition [9] of under 50%. For the same molecule, the inhibition [10] was under 50%, the inhibition [11] was under 50% and the inhibition (Sigma 2 receptor) was under 50%. It also gave a Ki [12] of 627 nM, a Ki [13] of 719 nM and a Ki [14] of 3220 nM. It also gave a Ki [15] of 96 nM.
